Test: xn = mol fraction of the nth substance listed
Details: 101 kPa

With `CN(C)C=O` + CC[n+]1ccn(C)c1.F[B-](F)(F)F the speed of sound (293.15 K, x1 = 1) was 1477.8 m/s, the speed of sound (303.15 K, x1 = 1) was 1440.3 m/s and the speed of sound (308.15 K, x1 = 1) was 1421 m/s.

Molecule `CNC=O` + CC[n+]1ccn(C)c1.F[B-](F)(F)F has a speed of sound (293.15 K, x1 = 0.0661) of 1633.3 m/s, a speed of sound (293.15 K, x1 = 0.0886) of 1633.3 m/s and a speed of sound (293.15 K, x1 = 0.1287) of 1633 m/s. For the same molecule, the speed of sound (293.15 K, x1 = 0.1757) was 1631.7 m/s, the speed of sound (293.15 K, x1 = 0.2258) was 1628 m/s and the speed of sound (293.15 K, x1 = 0.2783) was 1622.6 m/s. For the same molecule, the speed of sound (293.15 K, x1 = 0.3729) was 1608.1 m/s, the speed of sound (293.15 K, x1 = 0.4259) was 1597.9 m/s and the speed of sound (293.15 K, x1 = 0.4766) was 1585.5 m/s. For the same molecule, the speed of sound (293.15 K, x1 = 0.5291) was 1572.2 m/s, the speed of sound (293.15 K, x1 = 0.5749) was 1559.2 m/s and the speed of sound (293.15 K, x1 = 0.6252) was 1543.5 m/s. For the same molecule, the speed of sound (293.15 K, x1 = 0.7281) was 1511.5 m/s, the speed of sound (293.15 K, x1 = 0.7744) was 1496.7 m/s and the speed of sound (293.15 K, x1 = 0.8271) was 1481.1 m/s. It also gave a speed of sound (293.15 K, x1 = 0.8782) of 1467.7 m/s, a speed of sound (298.15 K, x1 = 0.0886) of 1622.4 m/s and a speed of sound (298.15 K, x1 = 0.1287) of 1622.1 m/s. For the same molecule, the speed of sound (298.15 K, x1 = 0.1757) was 1619.5 m/s, the speed of sound (298.15 K, x1 = 0.2258) was 1615.8 m/s and the speed of sound (298.15 K, x1 = 0.2783) was 1609 m/s. It also gave a speed of sound (298.15 K, x1 = 0.3287) of 1601.7 m/s, a speed of sound (298.15 K, x1 = 0.3729) of 1593 m/s and a speed of sound (298.15 K, x1 = 0.4259) of 1582.3 m/s. For the same molecule, the speed of sound (298.15 K, x1 = 0.4766) was 1569.5 m/s, the speed of sound (298.15 K, x1 = 0.5749) was 1543.2 m/s and the speed of sound (298.15 K, x1 = 0.6252) was 1527.8 m/s. For the same molecule, the speed of sound (298.15 K, x1 = 0.6773) was 1511.9 m/s, the speed of sound (298.15 K, x1 = 0.8782) was 1453.9 m/s and the speed of sound (298.15 K, x1 = 1) was 1431.9 m/s. The speed of sound (303.15 K, x1 = 0.0886) was 1611.3 m/s, the speed of sound (303.15 K, x1 = 0.1287) was 1610.8 m/s and the speed of sound (303.15 K, x1 = 0.1757) was 1607.8 m/s. For the same molecule, the speed of sound (303.15 K, x1 = 0.2258) was 1603.3 m/s, the speed of sound (303.15 K, x1 = 0.2783) was 1595.9 m/s and the speed of sound (303.15 K, x1 = 0.4259) was 1567.3 m/s. For the same molecule, the speed of sound (303.15 K, x1 = 0.4766) was 1554.2 m/s, the speed of sound (303.15 K, x1 = 0.5291) was 1540.2 m/s and the speed of sound (303.15 K, x1 = 0.6252) was 1513 m/s. It also gave a speed of sound (303.15 K, x1 = 0.6773) of 1496.9 m/s, a speed of sound (303.15 K, x1 = 0.7281) of 1482 m/s and a speed of sound (303.15 K, x1 = 0.7744) of 1467.9 m/s. For the same molecule, the speed of sound (303.15 K, x1 = 0.8271) was 1453 m/s, the speed of sound (303.15 K, x1 = 1) was 1417.7 m/s and the speed of sound (308.15 K, x1 = 0.0886) was 1600.3 m/s. For the same molecule, the speed of sound (308.15 K, x1 = 0.1757) was 1596.1 m/s, the speed of sound (308.15 K, x1 = 0.2258) was 1590.7 m/s and the speed of sound (308.15 K, x1 = 0.2783) was 1583.5 m/s. It also gave a speed of sound (308.15 K, x1 = 0.4259) of 1552.1 m/s, a speed of sound (308.15 K, x1 = 0.4766) of 1539.1 m/s and a speed of sound (308.15 K, x1 = 0.5291) of 1524.6 m/s. For the same molecule, the speed of sound (308.15 K, x1 = 0.5749) was 1511.9 m/s, the speed of sound (308.15 K, x1 = 0.6252) was 1496.9 m/s and the speed of sound (308.15 K, x1 = 0.6773) was 1480.7 m/s. It also gave a speed of sound (308.15 K, x1 = 0.7744) of 1452.1 m/s and a speed of sound (308.15 K, x1 = 0.8271) of 1437 m/s.

`CC[n+]1ccn(C)c1.F[B-](F)(F)F` + CN(C)C=O showed a speed of sound (293.15 K, x2 = 0) of 1631 m/s, a speed of sound (293.15 K, x2 = 0.0903) of 1625.1 m/s and a speed of sound (293.15 K, x2 = 0.1717) of 1622.4 m/s. The speed of sound (293.15 K, x2 = 0.2275) was 1621.4 m/s, the speed of sound (293.15 K, x2 = 0.2781) was 1620.2 m/s and the speed of sound (293.15 K, x2 = 0.3276) was 1618.1 m/s. For the same molecule, the speed of sound (293.15 K, x2 = 0.3781) was 1615.6 m/s, the speed of sound (293.15 K, x2 = 0.4227) was 1612.9 m/s and the speed of sound (293.15 K, x2 = 0.4757) was 1607.8 m/s. For the same molecule, the speed of sound (293.15 K, x2 = 0.5697) was 1593.8 m/s, the speed of sound (293.15 K, x2 = 0.6261) was 1582.9 m/s and the speed of sound (293.15 K, x2 = 0.7291) was 1558.1 m/s. The speed of sound (293.15 K, x2 = 0.769) was 1546.4 m/s, the speed of sound (293.15 K, x2 = 0.8268) was 1529.4 m/s and the speed of sound (298.15 K, x2 = 0) was 1619.4 m/s. It also gave a speed of sound (298.15 K, x2 = 0.0903) of 1611.5 m/s, a speed of sound (298.15 K, x2 = 0.1257) of 1609.6 m/s and a speed of sound (298.15 K, x2 = 0.2275) of 1606.7 m/s. For the same molecule, the speed of sound (298.15 K, x2 = 0.3276) was 1603.9 m/s, the speed of sound (298.15 K, x2 = 0.3781) was 1601 m/s and the speed of sound (298.15 K, x2 = 0.4227) was 1598.5 m/s. For the same molecule, the speed of sound (298.15 K, x2 = 0.5258) was 1586.4 m/s, the speed of sound (298.15 K, x2 = 0.5697) was 1579.9 m/s and the speed of sound (298.15 K, x2 = 0.6261) was 1568.1 m/s. For the same molecule, the speed of sound (298.15 K, x2 = 0.8268) was 1512.2 m/s, the speed of sound (298.15 K, x2 = 0.8789) was 1495.6 m/s and the speed of sound (303.15 K, x2 = 0) was 1607.6 m/s. For the same molecule, the speed of sound (303.15 K, x2 = 0.0903) was 1598 m/s, the speed of sound (303.15 K, x2 = 0.1257) was 1596 m/s and the speed of sound (303.15 K, x2 = 0.1717) was 1594 m/s. It also gave a speed of sound (303.15 K, x2 = 0.2275) of 1591.9 m/s, a speed of sound (303.15 K, x2 = 0.2781) of 1590.4 m/s and a speed of sound (303.15 K, x2 = 0.3276) of 1589.2 m/s. The speed of sound (303.15 K, x2 = 0.3781) was 1586.1 m/s, the speed of sound (303.15 K, x2 = 0.4227) was 1583.6 m/s and the speed of sound (303.15 K, x2 = 0.4757) was 1577.9 m/s. For the same molecule, the speed of sound (303.15 K, x2 = 0.5258) was 1571.3 m/s, the speed of sound (303.15 K, x2 = 0.6261) was 1552.6 m/s and the speed of sound (303.15 K, x2 = 0.6758) was 1541.3 m/s. For the same molecule, the speed of sound (303.15 K, x2 = 0.7291) was 1526.5 m/s, the speed of sound (303.15 K, x2 = 0.769) was 1513.9 m/s and the speed of sound (303.15 K, x2 = 0.8268) was 1495.4 m/s. It also gave a speed of sound (303.15 K, x2 = 0.8789) of 1478.4 m/s, a speed of sound (308.15 K, x2 = 0.0903) of 1586 m/s and a speed of sound (308.15 K, x2 = 0.1257) of 1583.1 m/s. The speed of sound (308.15 K, x2 = 0.2275) was 1577.6 m/s, the speed of sound (308.15 K, x2 = 0.2781) was 1574.8 m/s and the speed of sound (308.15 K, x2 = 0.3276) was 1572.2 m/s. For the same molecule, the speed of sound (308.15 K, x2 = 0.3781) was 1569.6 m/s, the speed of sound (308.15 K, x2 = 0.4227) was 1565.4 m/s and the speed of sound (308.15 K, x2 = 0.4757) was 1560.5 m/s. For the same molecule, the speed of sound (308.15 K, x2 = 0.5258) was 1553.1 m/s, the speed of sound (308.15 K, x2 = 0.6261) was 1534.5 m/s and the speed of sound (308.15 K, x2 = 0.6758) was 1523.2 m/s. The speed of sound (308.15 K, x2 = 0.7291) was 1508.1 m/s, the speed of sound (308.15 K, x2 = 0.769) was 1496.7 m/s and the speed of sound (308.15 K, x2 = 0.8268) was 1478 m/s. For the same molecule, the speed of sound (308.15 K, x2 = 0.8789) was 1460.1 m/s.

Molecule `CC[n+]1ccn(C)c1.F[B-](F)(F)F` + CNC=O has a speed of sound (293.15 K, x2 = 0) of 1631 m/s, a speed of sound (298.15 K, x2 = 0) of 1619.4 m/s and a speed of sound (303.15 K, x2 = 0) of 1607.6 m/s. It also gave a speed of sound (308.15 K, x2 = 0) of 1596.3 m/s.

Source: a compilation of properties of binary mixtures (doi:10.1007/s10953-013-9991-z)
